# Experiments:
# [1] = biological target: T1, GPR52 (Homo sapiens, UniProt Q9Y2T5); experiment: inhibition of WO-[…])-stimulated cAMP; type: cell-based
# [2] = biological target: T1, GPR52; experiment: intracellular cAMP HTRF assay; type: cell-based
# T1 sequence (Q9Y2T5 whole entry): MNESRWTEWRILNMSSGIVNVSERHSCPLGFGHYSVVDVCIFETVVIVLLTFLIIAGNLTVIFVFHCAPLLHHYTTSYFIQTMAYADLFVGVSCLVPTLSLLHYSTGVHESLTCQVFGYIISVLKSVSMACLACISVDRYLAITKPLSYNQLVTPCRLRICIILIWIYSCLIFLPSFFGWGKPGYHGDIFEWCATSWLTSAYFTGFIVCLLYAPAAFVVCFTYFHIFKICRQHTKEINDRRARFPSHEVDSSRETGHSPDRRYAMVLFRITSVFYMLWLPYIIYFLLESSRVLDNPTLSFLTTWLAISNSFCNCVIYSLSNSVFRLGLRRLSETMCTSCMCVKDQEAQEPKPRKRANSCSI
structure (smiles),measurement,setting,value
"C=C1C(=O)O[C@@H]2/C=C(\C)CC3C=C(C[C@H](OC(=O)/C(C)=C\C)[C@@H]12)C(=O)O3 (mixture of isomers) [E7, (3S,4R,8R,9E)-10-methyl-5-methylidene-6,14-dioxo-7,13-dioxatricyclo[10.2.1.0⁴,⁸]pentadeca-1(15),9-dien-3-yl (2Z)-2-methylbut-2-enoate]",IC50,[1],12 ± 0.7 µM
"Cc1nn(-c2cccc3cc(Cc4cccc(C(F)(F)F)c4)sc23)cc1C(=O)NCCO [WO-459, N-(2-hydroxyethyl)-3-methyl-1-[2-[3-(trifluoromethyl)benzyl]benzothiophen-7-yl]-1H-pyrazole-4-carboxamide]",EC50,[2],0.006 ± 0.0007 µM

# — paper PMC5972579 (Brain, 2018)
